Test [1] has as its target T1, Tyrosine-protein kinase Fyn (Homo sapiens, UniProt P06241). Kind of test: Inhibition of peptide EPQ (pY) EEIPI binding to Fyn protein kinase SH2 domain.
Test [2] deals with T1, Tyrosine-protein kinase Fyn. Kind of test: Inhibition of peptide EPQ (pY) EEIPI binding to Fyn protein kinase SH2 domain at 100 uM (no inhibition).

T1 sequence (P06241 whole entry, the tested form may be a part): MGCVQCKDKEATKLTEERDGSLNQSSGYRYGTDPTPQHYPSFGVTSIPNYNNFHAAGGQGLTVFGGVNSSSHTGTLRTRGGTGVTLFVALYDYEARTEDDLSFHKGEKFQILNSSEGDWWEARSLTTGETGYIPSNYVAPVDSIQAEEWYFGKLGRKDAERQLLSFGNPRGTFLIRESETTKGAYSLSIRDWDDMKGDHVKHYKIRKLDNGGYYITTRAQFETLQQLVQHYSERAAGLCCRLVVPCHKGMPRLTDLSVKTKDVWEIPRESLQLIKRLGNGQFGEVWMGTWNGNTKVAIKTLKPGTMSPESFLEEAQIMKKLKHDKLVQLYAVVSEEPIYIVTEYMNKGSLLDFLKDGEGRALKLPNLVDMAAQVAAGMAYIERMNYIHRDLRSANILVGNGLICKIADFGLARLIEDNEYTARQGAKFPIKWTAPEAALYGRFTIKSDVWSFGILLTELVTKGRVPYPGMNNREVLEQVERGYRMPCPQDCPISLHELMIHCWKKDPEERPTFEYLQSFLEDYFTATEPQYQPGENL

A word on the IC50: it is the midpoint of a concentration-inhibition curve. A lower IC50 goes with greater potency in that assay. Regarding `Oc1cc2c(cc1O)CC(NCc1ccccc1)C2`, in test [1], the IC50 worked out at 10 µM.

For the molecule `CCCN(CCC)CCc1ccc(O)c(O)c1`, in test [2], the IC50 was over 100 µM.

Regarding `CCCN(CCC)C1CCc2cc(O)c(O)cc2C1` (centres undefined), the IC50 in test [1] came to 50 µM.

In turn, `CCCN(CCC)C1Cc2cc(O)c(OC)cc2C1` (centres undefined) registered a concentration for half-maximal inhibition (IC50) in test [2] of over 100 µM.

Molecule `CC1=CC(=O)C(=O)C=C1C` gave an IC50 in test [1] of 1 µM.

In turn, `CCCN(CCC)C1Cc2ccc(O)cc2C1` (centres undefined) yielded an IC50 in test [2] of over 100 µM.

For `CCCN(CCC)C1Cc2cc(O)cc(O)c2C1` (centres undefined), the 50% inhibitory concentration (IC50) in test [2] is over 100 µM.

For `CCCN(CCC)C1Cc2c(O)ccc(O)c2C1`, in test [1], the IC50 was found to be 50 µM.

On to `NC1Cc2cc(O)c(O)cc2C1`, for which, in test [1], the IC50 was determined as 10 µM.

`CCCN(CCC)C1Cc2cc(O)c(O)cc2C1` returned an IC50 in test [1] of 10 µM.

In the case of `Oc1cc2c(cc1O)CC(N1CCCCC1)C2`, the half-maximal inhibitory concentration (IC50) in test [1] came to 10 µM.

In the case of `CCCC1Cc2cc(O)c(O)cc2C1`, in test [1], the IC50 was found to be 1 µM. Against the preceding molecule, the IC50 is about 10-fold lower.

Consider `NCCc1ccc(O)c(O)c1` [DOPAMINE], for which, in test [2], the IC50 was over 100 µM.

`CCCN(CCC)C1Cc2cc(OC)c(OC)cc2C1` [PNU-99194A]: in test [2], the IC50 was over 100 µM.

The record behind these values is ChEMBL document CHEMBL1130553, “Covalent binding of catechols to src family SH2 domains” (Bioorg Med Chem Lett, 1997).
